According to ChEMBL document CHEMBL1201862, “PubChem BioAssay data set” (2004):
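Grown in 96-well plates, cells were treated for 48 hours with each compound at five concentrations. Insufficient inhibition: endpoint recorded as highest concentration tested. At the GI50, growth is halved.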 Calls of active or inactive are those of the source. No stated cut-off is given here; in the data, active = GI50 up to about 1.1 µM and inactive = higher.

Tests used:
Test in all cases: inhibition of tumour cell growth, NCI panel, 48 h
786-0 = test system: 786-0
A549 = test system: A549
ACHN = test system: ACHN
COLO 205 = test system: COLO 205
HCC 2998 = test system: HCC 2998
HOP-62 = test system: HOP-62
HT-29 = test system: HT-29
M14 = test system: M14
MOLT-4 = test system: MOLT-4
NCI-H226 = test system: NCI-H226
NCI/ADR-RES = test system: NCI/ADR-RES
OVCAR-4 = test system: OVCAR-4
PC-3 = test system: PC-3
SF-295 = test system: SF-295
SK-MEL-28 = test system: SK-MEL-28
SK-MEL-5 = test system: SK-MEL-5
T47D = test system: T47D
UACC-257 = test system: UACC-257
UO-31 = test system: UO-31
SNB-19 = test system: SNB-19

Measured: GI50

CCOC(=O)c1[nH]cc(C)c1-c1ccc2c(-c3ccccc3)nc3ccccc3n12
inactive: 786-0 3.56 µM | A549 3.77 µM | ACHN 4.01 µM | COLO 205 2.86 µM | HCC 2998 2.26 µM | HOP-62 5.42 µM | HT-29 2.54 µM | M14 5.55 µM | MOLT-4 2.31 µM | NCI-H226 5.22 µM | NCI/ADR-RES 2.51 µM | OVCAR-4 3.85 µM | PC-3 3.01 µM | SF-295 3.52 µM | SK-MEL-28 3.89 µM | SK-MEL-5 2.37 µM | T47D 4.43 µM | UACC-257 5.3 µM | UO-31 3.86 µM

COc1ccc(/C=C2\C=Cc3ccccc32)cc1OC
inactive: 786-0 57.5 µM | A549 > 100 µM | ACHN 78.2 µM | COLO 205 > 100 µM | HCC 2998 > 100 µM | HOP-62 > 100 µM | HT-29 88.3 µM | M14 > 100 µM | MOLT-4 38.6 µM | NCI-H226 28.4 µM | NCI/ADR-RES > 100 µM | OVCAR-4 29.9 µM | PC-3 46.5 µM | SF-295 > 100 µM | SK-MEL-28 > 100 µM | SK-MEL-5 43.2 µM | SNB-19 > 100 µM | T47D 47.3 µM | UACC-257 > 100 µM

Cc1ccc(O)c(C2=CC3=NNC(=O)C3C(c3cccc(Br)c3)C2)c1 (centres undefined)
inactive: 786-0 29.5 µM | A549 23 µM | ACHN 24 µM | COLO 205 12.3 µM | HCC 2998 14.7 µM | HOP-62 55 µM | HT-29 23.8 µM | M14 36.9 µM | MOLT-4 30.9 µM | NCI/ADR-RES 34.6 µM | OVCAR-4 8.04 µM | PC-3 34.3 µM | SF-295 18.8 µM | SK-MEL-28 20.6 µM | SK-MEL-5 23.1 µM | SNB-19 34.2 µM | T47D 20.5 µM | UACC-257 45.2 µM | UO-31 57.3 µM

O=C(/C=C/c1ccc(O)c(O)c1)OCCCOC(=O)/C=C/c1ccc(O)c(O)c1
inactive: 786-0 20.2 µM | A549 31.3 µM | ACHN 16.2 µM | COLO 205 28.9 µM | HCC 2998 38.9 µM | HOP-62 11.7 µM | HT-29 22.3 µM | M14 19.2 µM | MOLT-4 10.9 µM | NCI/ADR-RES 28.4 µM | OVCAR-4 23.2 µM | PC-3 30.5 µM | SF-295 18 µM | SK-MEL-28 36.6 µM | SK-MEL-5 15.9 µM | SNB-19 31.4 µM | T47D 35.6 µM | UACC-257 26.4 µM | UO-31 7.13 µM

CCOC(=O)c1cc(C)n(CN(CCO)Cn2nc(C(=O)OCC)cc2C)n1
inactive: 786-0 22 µM | A549 97.3 µM | ACHN 22.8 µM | COLO 205 20.5 µM | HCC 2998 11.8 µM | HOP-62 25.9 µM | HT-29 23.6 µM | M14 18.5 µM | MOLT-4 31.8 µM | NCI/ADR-RES 18.7 µM | OVCAR-4 33.4 µM | PC-3 28.4 µM | SF-295 > 100 µM | SK-MEL-28 40.7 µM | SK-MEL-5 37.2 µM | SNB-19 52.4 µM | T47D 24.5 µM | UACC-257 29.2 µM | UO-31 21.5 µM

CN(C)c1ccc(C2CC(C)(O)Oc3cc4c(cc32)OCO4)cc1 (centres undefined)
inactive: 786-0 43.7 µM | A549 43.7 µM | ACHN 70.6 µM | COLO 205 23.4 µM | HCC 2998 32.4 µM | HOP-62 62.4 µM | HT-29 26.9 µM | M14 39.1 µM | MOLT-4 > 100 µM | NCI-H226 3.86 µM | NCI/ADR-RES 35.2 µM | PC-3 39.4 µM | SF-295 29.1 µM | SK-MEL-28 36.9 µM | SK-MEL-5 30.6 µM | SNB-19 98.9 µM | T47D 48.6 µM | UACC-257 62.4 µM | UO-31 30.7 µM

Cc1ncc([N+](=O)[O-])n1CCN(C)C(=O)CCCn1ccnc1[N+](=O)[O-]
inactive: 786-0 > 100 µM | A549 > 100 µM | ACHN > 100 µM | COLO 205 > 100 µM | HOP-62 > 100 µM | HT-29 > 100 µM | M14 > 100 µM | MOLT-4 > 100 µM | NCI-H226 > 100 µM | NCI/ADR-RES > 100 µM | OVCAR-4 > 100 µM | PC-3 > 100 µM | SF-295 > 100 µM | SK-MEL-28 > 100 µM | SK-MEL-5 > 100 µM | T47D > 100 µM | UACC-257 > 100 µM | UO-31 > 100 µM

CCCOC(=O)c1cc(C(=CCC[C@H]2CC[C@@]3(C)[C@@H](CC[C@@H]4[C@@H]3CC[C@]3(C)[C@@H](C(C)CCCC(C)C)CC[C@@H]43)C2)c2cc(Cl)c(O)c(C(=O)OCCC)c2)cc(Cl)c1O (some centres undefined)
inactive: 786-0 > 50 µM | COLO 205 > 50 µM | HCC 2998 > 50 µM | HOP-62 > 50 µM | HT-29 > 50 µM | MOLT-4 > 50 µM | NCI-H226 > 50 µM | NCI/ADR-RES > 50 µM | OVCAR-4 > 50 µM | PC-3 > 50 µM | SK-MEL-5 > 50 µM | SNB-19 > 50 µM | T47D > 50 µM

COc1ccc(-n2cnc3c2=NC(C)(C)NC=3C(N)=O)c(OC)c1
inactive: 786-0 > 100 µM | A549 > 100 µM | ACHN > 100 µM | COLO 205 > 100 µM | HCC 2998 > 100 µM | HOP-62 > 100 µM | HT-29 > 100 µM | M14 > 100 µM | NCI-H226 > 100 µM | NCI/ADR-RES > 100 µM | OVCAR-4 > 100 µM | PC-3 > 100 µM | SF-295 > 100 µM | SK-MEL-28 > 100 µM | SK-MEL-5 > 100 µM | SNB-19 > 100 µM | T47D > 100 µM | UACC-257 > 100 µM

CC1(C)N=c2[nH]cnc2=C(C(N)=O)N1
inactive: 786-0 > 100 µM | A549 > 100 µM | ACHN > 100 µM | COLO 205 > 100 µM | HCC 2998 > 100 µM | HOP-62 > 100 µM | HT-29 > 100 µM | M14 > 100 µM | NCI-H226 > 100 µM | NCI/ADR-RES > 100 µM | OVCAR-4 > 100 µM | PC-3 > 100 µM | SF-295 > 100 µM | SK-MEL-28 > 100 µM | SK-MEL-5 > 100 µM | SNB-19 > 100 µM | T47D > 100 µM | UACC-257 > 100 µM

COc1cc2c(c3oc4c(O)cccc4c(=O)c13)CC(C(C)(O)CO)O2 (centres undefined)
inactive: 786-0 65.6 µM | A549 > 100 µM | ACHN 59.6 µM | COLO 205 > 100 µM | HCC 2998 > 100 µM | HOP-62 > 100 µM | HT-29 43.8 µM | M14 > 100 µM | MOLT-4 15.7 µM | NCI-H226 > 100 µM | NCI/ADR-RES > 100 µM | PC-3 > 100 µM | SF-295 > 100 µM | SK-MEL-28 > 100 µM | SK-MEL-5 53 µM | SNB-19 94.4 µM | T47D 75.7 µM | UACC-257 > 100 µM | UO-31 > 100 µM

Cc1ccc(C2SCC(=O)N2c2ccc(-c3ccc(-n4c(-c5ccccc5)nc5ccccc5c4=O)cc3)cc2)cc1 (centres undefined)
inactive: 786-0 45.7 µM | A549 > 100 µM | ACHN > 100 µM | COLO 205 81.8 µM | HCC 2998 > 100 µM | HOP-62 > 100 µM | HT-29 38.9 µM | M14 85.7 µM | MOLT-4 34.5 µM | NCI/ADR-RES 91.4 µM | OVCAR-4 51.3 µM | PC-3 42.4 µM | SF-295 > 100 µM | SK-MEL-28 > 100 µM | SK-MEL-5 41.1 µM | SNB-19 > 100 µM | T47D 24.8 µM | UACC-257 > 100 µM | UO-31 18.6 µM

CCCCCCOC(=O)C(N)Cc1ccc(OC)cc1 (centres undefined)
inactive: 786-0 > 100 µM | A549 > 100 µM | ACHN > 100 µM | COLO 205 > 100 µM | HOP-62 > 100 µM | HT-29 > 100 µM | M14 > 100 µM | MOLT-4 > 100 µM | NCI-H226 > 100 µM | NCI/ADR-RES > 100 µM | OVCAR-4 > 100 µM | PC-3 > 100 µM | SF-295 > 100 µM | SK-MEL-28 > 100 µM | SK-MEL-5 > 100 µM | SNB-19 > 100 µM | T47D > 100 µM | UACC-257 > 100 µM | UO-31 > 100 µM

NCCOc1ccccn1
inactive: 786-0 > 100 µM | A549 > 100 µM | ACHN > 100 µM | COLO 205 > 100 µM | HOP-62 > 100 µM | HT-29 > 100 µM | M14 > 100 µM | MOLT-4 > 100 µM | NCI-H226 > 100 µM | NCI/ADR-RES > 100 µM | OVCAR-4 > 100 µM | PC-3 > 100 µM | SF-295 > 100 µM | SK-MEL-28 > 100 µM | SK-MEL-5 > 100 µM | SNB-19 > 100 µM | T47D > 100 µM | UACC-257 > 100 µM | UO-31 > 100 µM

COc1cc(Cc2nccc3cc(OC)c(OC)cc23)c(C(C)=O)cc1OC
inactive: 786-0 65.2 µM | A549 > 300 µM | ACHN 153 µM | COLO 205 18.4 µM | HCC 2998 80.7 µM | HOP-62 39.4 µM | HT-29 199 µM | M14 187 µM | NCI-H226 10.8 µM | NCI/ADR-RES > 300 µM | OVCAR-4 6.71 µM | PC-3 > 100 µM | SF-295 > 300 µM | SK-MEL-5 57.4 µM | SNB-19 300 µM | T47D 2.2 µM | UO-31 > 139 µM
